The record followed here is PubChem BioAssay (NCI).

Some test systems named below: ACHN renal; COLO 205 colon; HCT-15 colon; KM12 colon; M14 melanoma; MOLT-4 leukemia; NCI-H522 lung; SK-MEL-5 melanoma; SNB-75 CNS; TK-10 renal.
Experiment in all cases: DTP human tumour cell line panel, 48 h

Where “and” joins values, the source holds several entries; their conditions need not be identical. Equal values may be shown once.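 Five compound concentrations were applied to cells in 96-well plates for 48 hours; endpoints were derived by simple linear interpolation of the resulting dose-response curve. Abbreviation: GI50, concentration required for 50% inhibition of growth. Definition used: TGI = concentration required for complete inhibition of growth.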

Broadly, the TGI is the concentration at which net growth stops. Read a low TGI as greater sensitivity of the cells. Take `c1ccc(CSC(SCc2ccccc2)c2cccc3ccccc23)cc1`: the TGI with ACHN renal, in the assay on COLO 205 colon, in the assay on HCT-15 colon, in the assay on KM12 colon, with M14 melanoma and in the assay on MOLT-4 leukemia was over 10 µM each time. Further, the TGI in the assay with NCI-H522 lung, in the assay with SK-MEL-5 melanoma, in the assay with SNB-75 CNS and with TK-10 renal was over 10 µM in each case.

As to `COC(=O)c1c(O)ccc2c1c1c(n2CCc2ccc(OC)c(OC)c2)C(=O)c2ccccc2C1=O`, the TGI in the assay with ACHN renal was 35.9 µM; in the assay with COLO 205 colon, 11.1 µM; with HCT-15 colon it was 29.3 µM; in the assay with KM12 colon, 25.6 µM; in the assay on M14 melanoma, 31 µM; with MOLT-4 leukemia, 65.8 µM. Also, the TGI with NCI-H522 lung turned out to be 14 µM; with SK-MEL-5 melanoma it was 23.9 µM; in the assay with TK-10 renal, 57.1 µM.

Regarding `N#CC1(CCCI)CCCC1`, the TGI is over 100 µM in the assay with ACHN renal; over 100 µM in the assay on COLO 205 colon; over 100 µM in the assay with HCT-15 colon; over 100 µM in the assay on KM12 colon; 50.4 µM in the assay with M14 melanoma; over 100 µM in the assay on MOLT-4 leukemia. Also, the TGI in the assay with NCI-H522 lung is 28.7 µM; in the assay on SK-MEL-5 melanoma, 25.5 µM; with SNB-75 CNS, 20.2 µM; in the assay on TK-10 renal, over 100 µM.

As usually defined, the GI50 is the concentration giving 50% growth inhibition. On to `CC[C@@]1(O)CC(OC2CC(N3CCOCC3)C(O)C(C)O2)c2c(O)c3c(c(O)c2[C@H]1O)C(=O)c1cccc(O)c1C3=O` (stereo partly drawn), for which the TGI in the assay with ACHN renal is 0.0815 µM; with COLO 205 colon it was 0.897 µM and 2.14 µM; with HCT-15 colon it was 1.44 µM and 3.18 µM; in the assay on KM12 colon, 3.59 µM and 1.68 µM; in the assay with M14 melanoma, 1.51 µM; in the assay with MOLT-4 leukemia, 0.369 µM and 0.128 µM. Further, the TGI was 0.906 µM and 0.407 µM in the assay on NCI-H522 lung; 0.451 µM and 0.181 µM in the assay on SK-MEL-5 melanoma; 0.93 µM and 0.399 µM in the assay with SNB-75 CNS; 1.7 µM in the assay on TK-10 renal. For the same compound, the GI50 with COLO 205 colon is 0.0433 µM; with HCT-15 colon it was 0.0358 µM; in the assay with NCI-H522 lung, 0.055 µM; with SK-MEL-5 melanoma, 0.0175 µM; in the assay on SNB-75 CNS it was 0.0452 µM.

Consider `CC(=O)OC(C(=O)O)C(OC(C)=O)C(OC(C)=O)C(OC(C)=O)C(=O)O` (stereo not drawn), for which the TGI in the assay with COLO 205 colon, with HCT-15 colon, in the assay on KM12 colon, with M14 melanoma, with MOLT-4 leukemia and in the assay with NCI-H522 lung was over 100 µM in each case. Also, the TGI in the assay on SK-MEL-5 melanoma and in the assay on TK-10 renal was over 100 µM in each case.

On to `O=C1OC(c2ccc(O)cc2)(c2ccc(O)cc2)c2ccc(Cl)c3cccc1c23` (tested in a mixture with another compound), for which the TGI with ACHN renal was 39.8 µM; in the assay on COLO 205 colon, 9.06 µM; with HCT-15 colon, 22.8 µM; in the assay with KM12 colon it was 17.9 µM; with M14 melanoma it was 19.8 µM; with SK-MEL-5 melanoma, 29.3 µM. The compound further had a TGI with TK-10 renal of 52.6 µM.

For `O=C(O)c1cc2ccccc2c(N=Nc2ccc(S(=O)(=O)Nc3ccccn3)cc2)c1O`, the TGI in the assay on ACHN renal, with COLO 205 colon, with HCT-15 colon, in the assay on KM12 colon, with M14 melanoma and in the assay on MOLT-4 leukemia was over 100 µM throughout. Moreover, the TGI with NCI-H522 lung, in the assay with SK-MEL-5 melanoma, with SNB-75 CNS and with TK-10 renal was over 100 µM each time.

In the case of `c1ccc(/C(=N\Nc2nc3ccccc3[nH]2)c2ccccn2)cc1`, the TGI with ACHN renal came to 2 µM; in the assay on COLO 205 colon it was 3.31 µM; in the assay on HCT-15 colon, 5.83 µM; in the assay on KM12 colon it was 17 µM; with M14 melanoma it was 1.89 µM; with MOLT-4 leukemia, 51.9 µM. The concentration for total growth inhibition (TGI) stood at 0.69 µM with NCI-H522 lung, 4.66 µM with SK-MEL-5 melanoma, 3.85 µM in the assay with SNB-75 CNS and 3.82 µM in the assay with TK-10 renal.

For `O=C(CSCC(=O)N/N=C\c1ccc(F)cc1F)N/N=C\c1ccc(F)cc1F`, the TGI with ACHN renal, with COLO 205 colon, with HCT-15 colon, in the assay with KM12 colon, in the assay on M14 melanoma and in the assay with MOLT-4 leukemia was over 100 µM in each case. For the same compound, the TGI in the assay on NCI-H522 lung, in the assay with SK-MEL-5 melanoma, with SNB-75 CNS and in the assay on TK-10 renal was over 100 µM in each case.

On to `CCCCCCCCCCCCc1ccc(S(=O)(=O)O)cc1.[Cu+2]`, for which the TGI with ACHN renal, with COLO 205 colon, in the assay on HCT-15 colon, in the assay with KM12 colon, in the assay with M14 melanoma and with MOLT-4 leukemia was over 100 µM in each case. Besides, the TGI with SK-MEL-5 melanoma, in the assay with SNB-75 CNS and in the assay on TK-10 renal was over 100 µM in each case.

Turning to `COc1ccccc1C#C/C=C\C#Cc1ccccc1C#N`, the TGI in the assay with ACHN renal was over 100 µM; in the assay with COLO 205 colon it was 37.1 µM; with HCT-15 colon it was over 100 µM; in the assay with KM12 colon it was 55.6 µM; in the assay with M14 melanoma it was 46.5 µM; in the assay on MOLT-4 leukemia, 38.4 µM. In addition, the TGI with NCI-H522 lung was 25.7 µM; with SK-MEL-5 melanoma it was 5.95 µM; in the assay on SNB-75 CNS, over 100 µM; in the assay on TK-10 renal, over 100 µM.
